Experimental data: paper doi:10.1101/2025.08.06.669005v1 (bioRxiv, 2025)
Starred links: 1 amine or outer side, 2 acyl side, 3 side chain; linkers in the order of their positions; H or OH if unused. Positions of bridges follow the written chain, without caps; N, C: chain ends. Non-standard residues stand in square brackets, D forms with d. Residues, ends and D or L forms follow the SMILES beside them. Chains are numbered I, II in the order given. X1 = O=C(O)C[C@@H](C(=O)[*:2])N(c1ccc([N+](=O)[O-])c2nonc12)[*:1]; Nle = CCCC[C@H](N)C(=O)O; Aib = CC(C)(N)C(=O)O

Assays:
PANC-1 cells [1] = assay: Membrane perturbation assay; assay type: cell-based; details: PI 3.5 µM, 30 min, 37 °C, CLSM, n = 28–58 cells
HeLa cells [2] = assay: Membrane perturbation assay; assay type: cell-based; details: PI 3.5 µM, 30 min, 37 °C, CLSM, n = 37–65 cells
sEVs = details: previous data; cited from earlier work
EVs = details: placed in cultured media without separation steps; cited from earlier work
ζ-potential measurement = assay type: physicochemical; details: non- and DiD-labeled MSC-sEVs; Zetasizer Nano ZS, 25 °C; n = 5
MSC-sEVs = assay: sEV binding of 2 in solution in the presence of heparin; details: heparin 100 or 500 µg/mL; n = 3
[3] = test system: sEV-mimicking liposomes (POPC:cholesterol:POPS = 75:15:10 mol%); assay: Peptide binding to sEV-mimicking liposomes; details: ratio of Kd values for sEV-mimicking liposomes
HeLa cells [4] = assay: Cellular uptake by CLSM; assay type: cell-based; details: 2 at 1 µM alone, 37 °C, more than 1 h
PANC-1 cells [5] = assay: Cellular uptake by CLSM; assay type: cell-based; details: 2 at 1 µM alone, 37 °C, more than 1 h
cancer cells = assay: sEV drug-loading system with a hydrophobic compound; assay type: cell-based; details: compound loaded onto sEVs; data not shown

Compound	ratio of the dead cells stained by PI (PANC-1 cells [1]) [%]	ratio of the dead cells stained by PI (HeLa cells [2]) [%]	also measured
biotin-LSQETFZ’DLWKLLZEN-NH2 (sidechain bridge or staple) [Peptide 9]	3.3	6.5	
CCCC[C@H](NC(=O)[C@H](CCCCN)NC(=O)[C@H](CO)NC(=O)[C@H](CC(C)C)NC(=O)C(C)(C)NC(=O)[C@H](CC(=O)O)NC(=O)[C@@H](NC(=O)C(C)(C)NC(=O)[C@H](CCCCN)NC(=O)[C@H](CC(N)=O)NC(=O)[C@H](CC(C)C)NC(=O)[C@H](CCCC)NC(=O)[C@H](CCCCN)NC(=O)[C@H](CC(C)C)NC(=O)[C@H](CC(C)C)NC(=O)C(C)(C)NC(=O)[C@H](CCCCN)NC(=O)[C@H](CC(=O)O)Nc1ccc([N+](=O)[O-])c2nonc12)[C@@H](C)O)C(=O)NCC(=O)N[C@@H](CO)C(=O)NCC(=O)N[C@@H](CO)C(=O)N[C@@H](CCCCN)C(N)=O [Peptide 1] (HELM PEPTIDE1{[O=C(O)C[C@H](Nc1ccc([N+](=O)[O-])c2nonc12)C(=O)[*:2]].K.[Aib].L.L.K.[Nle].L.N.K.[Aib].T.D.[Aib].L.S.K.[Nle].G.S.G.S.K.[am]}$$$$V2.0)			amount of peptide bound at the plateau level (sEVs): 1,361 peptides/vesicle; time to selective binding to EVs (EVs): ≤ 5 min
CO [MeOH]	97.3	96.5	
DKBLLKXLNKBTDBLSKX-GSGS-C-NH2 (disulfide) [2′]			change of ζ-potential of sEVs in the presence of the peptide (ζ-potential measurement): slight increase in ζ-potential
Heparin			fluorescence intensity of NBD of 2 in the presence of MSC-sEVs in solution (MSC-sEVs): did not influence
biotin-DKBLLKXLNKBTDBLSKX-GSGS-C-NH2 | biotin-DKBLLKXLNKBTDBLSKX-GSGS-C-NH2 (disulfide) [Peptide 8]	1.9	0.0	
I: H-[X1]K[Aib]LLK[Nle]LNK[Aib]TD[Aib]LSK[Nle]GSGSC-NH2 / II: H-[X1]K[Aib]LLK[Nle]LNK[Aib]TD[Aib]LSK[Nle]GSGSC-NH2 (disulfide I:23-II:23) [Peptide 2]			affinity relative to that of 1 [3]: 15.7 fold; NBD signals in cells in the absence of DiD-MSC-sEVs (uptake of peptide alone) (HeLa cells [4]): negligible; NBD signals in cells in the absence of DiD-MSC-sEVs (uptake of peptide alone) (PANC-1 cells [5]): negligible
biotin-IWIAQELRRIGDEFNZYYAZR-NH2 (sidechain bridge or staple) [Peptide 10]	7.1	4.5	
CC[C@@]1(O)C(=O)OCc2c1cc1n(c2=O)Cc2cc3ccccc3nc2-1 [camptothecin]			performance of the sEV drug-loading system (cancer cells): did not work effectively
